Molecules are shown by their SMILES.

This note sets out measurements from US20230391779A1, “BICYCLIC COMPOUNDS, COMPOSITIONS AND USE THEREOF” (Betta Pharmaceuticals Co., Ltd., priority 2020, published 2023).

The assay relates to TEAD-YAP/TAZ interaction. The assay can be described thus: CTGF ELISA assay. The format is cell-based, human. Conditions: CTGF in culture supernatant of NCI-H2052 cells, 24 hours with compound. Here is the method:
The detection of CTGF expression level can assessed the binding activity of TEAD-YAP/TAZ transcription factor, and the CTGF expression level was quantified by SimpleStep ELISA® kit (Abcam, ab261851).
NCI-H2052 cells (Purchased from ATCC) were cultured in RPMI 1640 medium, adding 10% FBS and 1% Penicillin-Streptomycin Solution and 1 mM Sodium pyruvate. The day before compounds treatment, the cultured cells were washed with PBS and digested with trypsin, then centrifuged and collected. Discarded the supernatant, the cells were resuspended in fresh complete medium. After cells counted, cells were seeded at 6500 cells/well in 96-well plates. And then cells were cultured overnight in incubator (37° C., 5% CO2).
After the cells were cultured overnight, discarded the culture supernatant, then washed with PBS solution, cells were incubated with 200 μl medium containing compounds in each well. The starting concentration was 10 μM and serial dilution in DMSO and medium were performed to achieve a final DMSO concentration of 0.5% (Final compounds concentration were 10000, 2500, 625, 156, 39.1, 9.77, 2.44, 0.61 nM, 0 nM (0.5% DMSO), The cells were then cultured in incubator (37° C., 5% CO2). Cultured for 24 hours, the cells were centrifuged at 1500 RPM at 4° C. for 5 minutes, and then 50 μl of culture supernatant were tested for CTGF ELISA assay.
The Human CTGF SimpleStep ELISA® Kit (Abcam, ab261851) employs an affinity tag labeled capture antibody and a reporter conjugated detector antibody which immunocapture the sample analyte in solution. This entire complex (capture antibody/analyte/detector antibody) is in turn immobilized via immunoaffinity of an anti-tag antibody coating the well. To perform the assay, samples or standards are added to the wells, followed by the antibody mix (capture antibody/detector antibody). After incubation, the wells are washed to remove unbound material. TMB Development Solution is added and during incubation is catalyzed by HRP, generating blue coloration. This reaction is then stopped by addition of Stop Solution completing any color change from blue to yellow. Signal is generated proportionally to the amount of bound analyte and the intensity is measured at 450 nm. Firstly, prepare all reagents, samples, and standards as instructed. Add 50 μl standard or sample to appropriate wells. Then add 50 μl of the Antibody Cocktail to each well. Seal the plate and incubate for 1 hour at room temperature on a plate shaker. Wash each well with Wash Buffer three times. Add 100 μl of TMB Development Solution to each well and incubate for 10 minutes in the dark on a plate shaker. Add 100 μl of Stop Solution to each well. Shake plate on a plate shaker for 1 minute to mix. Record the OD at 450 nm. Determine the concentration of the target protein in the sample by the standard curve.
EC50 value was determined by fitting the concentration response curves using GraphPad Prism software. The compounds of the present invention were tested for their capacity to inhibit TEAD-YAP/TAZ interaction according to the fitted curves of CTGF concentration response to compounds.
Consider `C=CC(=O)N1CC(n2nc(-c3ccc(C(F)(F)F)cc3F)c3ncccc32)C1` [Compound 129, 1-(3-(3-(2-fluoro-4-(trifluoro-methyl)phenyl)-1H-pyrazolo[4,3-b]pyridin-1-yl)azetidin-1-yl)prop-2-en-1-one], for which the EC50 was found to be 8 nM.

As for `C=CC(=O)N1CC(n2nc(-c3ccc(C(F)(F)F)nc3)c3ncccc32)C1` [Compound 131, 1-(3-(3-(6-(trifluoromethyl)pyr-idin-3-yl)-1H-pyrazolo[4,3-b]-pyridin-1-yl)azetidin-1-yl)prop-2-en-1-one], the EC50 came out at 18 nM.

As for `C=C(F)C(=O)N1CC(n2nc(-c3ccc(C(F)(F)F)cc3)c3nccnc32)C1` [Compound 160, 2-fluoro-1-(3-(3-(4-(trifluoro-methyl)phenyl)-1H-pyrazolo[3,4-b]pyrazin-1-yl)azetidin-1-yl)prop-2-en-1-one], the EC50 was found to be 9 nM.

On to `C=CC(=O)N1CC(n2nc(-c3ccc(C(F)(F)F)cc3)c3nccnc32)C1` [Compound 161, 1-(3-(3-(4-(trifluoromethyl)phen-yl)-1H-pyrazolo[3,4-b]pyrazin-1-yl)azetidin-1-yl)prop-2-en-1-one], for which the EC50 amounted to 3 nM.

On to `C=C(F)C(=O)N1CC(n2nc(-c3ccc(C(F)(F)F)cc3)c3ccc[n+]([O-])c32)C1` [Compound 165, 1-(1-(2-fluoroacryloyl)azetidin-3-yl)-3-(4-(trifluoromethyl)phenyl)-1H-pyrazolo[3,4-b]pyridine 7-oxide], for which the EC50 came out at 40 nM.

Consider `C=C(F)C(=O)N1CC(n2nc(-c3ccc(C(C)C)cc3)c3cccnc32)C1` [Compound 171, 2-fluoro-1-(3-(3-(4-isopropyl-phenyl)-1H-pyrazolo[3,4-b]-pyridin-1-yl)azetidin-1-yl)prop-2-en-1-one], for which the EC50 stood at 148 nM.

As to `C=C(F)C(=O)N1CC(n2nc(-c3ccc(C#N)c(C(F)(F)F)c3)c3cccnc32)C1` [Compound 178, 4-(1-(1-(2-fluoroacryloyl)azetidin-3-yl)-1H-pyrazolo[3,4-b]pyridin-3-yl)-2-(trifluoromethyl)benzo-nitrile], the EC50 came out at 34 nM.

Take `C=C(F)C(=O)N1CC(n2nc(-c3cnc(C(F)(F)F)c(F)c3)c3cccnc32)C1` [Compound 184, 2-fluoro-1-(3-(3-(5-fluoro-6-(trifluoromethyl)pyridin-3-yl)-1H-pyrazolo[3,4-b]pyridin-1-yl)-azetidin-1-yl)prop-2-en-1-one]: the EC50 is 7.69 nM.

Regarding `C=C(F)C(=O)N1CC(n2nc(-c3ccc(C(F)(F)F)cc3)c3ccc(C)nc32)C1` [Compound 186, 2-fluoro-1-(3-(6-methyl-3-(4-(trifluoromethyl)phenyl)-1H-pyrazolo[3,4-b]pyridin-1-yl)-azetidin-1-yl)prop-2-en-1-one], the EC50 is 2 nM.

On to `C=C(F)C(=O)N1CC(n2nc(-c3ccc(C(F)(F)F)cc3)c3ccc(Cl)nc32)C1` [Compound 187, 1-(3-(6-chloro-3-(4-(trifluoro-methyl)phenyl)-1H-pyrazolo[3,4-b]pyridin-1-yl)azetidin-1-yl)-2-fluoroprop-2-en-1-one], for which the EC50 was determined as 2 nM.

Turning to `C=C(F)C(=O)Nc1cc(-n2nc(-c3ccc(C(F)(F)F)cc3)c3cccnc32)ccc1OC` [Compound 188, 2-fluoro-N-(2-methoxy-5-(3-(4-(trifluoromethyl)phenyl)-1H-pyrazolo[3,4-b]pyridin-1-yl)-phenyl)acrylamide], the EC50 amounted to 0.06 nM.

In the case of `C=CC(=O)Nc1cc(-n2nc(-c3ccc(C(F)(F)F)cc3)c3cccnc32)ccc1Cl` [Compound 189, N-(2-chloro-5-(3-(4-(trifluoro-methyl)phenyl)-1H-pyrazolo[3,4-b]pyridin-1-yl)phenyl)acrylamide], the EC50 turned out to be 24 nM.

For the compound `C=C(F)C(=O)N1CC(n2nc(-c3ccc(C(F)(F)F)cc3)c3ccccc32)C1` [Compound 196, 2-fluoro-1-(3-(3-(4-(trifluoro-methyl)phenyl)-1H-indazol-1-yl)azetidin-1-yl)prop-2-en-1-one], the EC50 was 9 nM.

In the case of `C=C(F)C(=O)N1CC(n2nc(-c3ccc(C(F)(F)F)nc3)c3ccccc32)C1` [Compound 197, 2-fluoro-1-(3-(3-(6-(trifluoro-methyl)pyridin-3-yl)-1H-indazol-1-yl)azetidin-1-yl)prop-2-en-1-one], the EC50 is 12.6 nM.

Regarding `C=C(F)C(=O)N1CC(n2nc(-c3ccc(C(F)(F)F)nc3)c3nccnc32)C1` [Compound 198, 2-fluoro-1-(3-(3-(6-(trifluoro-methyl)pyridin-3-yl)-1H-pyrazolo[3,4-b]pyrazin-1-yl)-azetidin-1-yl)prop-2-en-1-one], the EC50 was 0.9 nM.

As for `C=C(F)C(=O)N1CC(n2nc(-c3ccc(C(F)(F)F)nc3)c3ccc(C)nc32)C1` [Compound 199, 2-fluoro-1-(3-(6-methyl-3-(6-(trifluoromethyl)pyridin-3-yl)-1H-pyrazolo[3,4-b]pyridin-1-yl)-azetidin-1-yl)prop-2-en-1-one], the EC50 is 20 nM.

For `C=C(F)C(=O)N1CC(n2nc(-c3ccc(C(F)(F)F)cc3)c3cc(F)cnc32)C1` [Compound 202, 2-fluoro-1-(3-(5-fluoro-3-(4-(trifluoromethyl)phenyl)-1H-pyrazolo[3,4-b]pyridin-1-yl)-azetidin-1-yl)prop-2-en-1-one], the EC50 worked out at 8.1 nM.

Turning to `C=C(F)C(=O)N1CC(n2nc(-c3ccc(C(F)(F)F)cc3)c3c2CCOC3)C1` [Compound 208, 2-fluoro-1-(3-(3-(4-(trifluoro-methyl)phenyl)-6,7-dihydro-pyrano-[4,3-c]pyrazol-1(4H)-yl)-azetidin-1-yl)prop-2-en-1-one], the EC50 is 4.1 nM.

`C=C(F)C(=O)N1CC(n2nc3c(c2-c2ccc(C(F)(F)F)cc2)COCC3)C1` [Compound 209, 2-fluoro-1-(3-(3-(4-(trifluoro-methyl)phenyl)-6,7-dihydro-pyrano[4,3-c]pyrazol-2(4H)-yl)azetidin-1-yl)prop-2-en-1-one]: the EC50 was 25 nM.

As to `C=C(F)C(=O)N1CC(n2nc(-c3ccc(C(F)(F)F)cc3)c3c2CCCC3)C1` [Compound 217, 2-fluoro-1-(3-(3-(4-(trifluoro-methyl)phenyl)-4,5,6,7-tetra-hydro-1H-indazol-1-yl)azetidin-1-yl)prop-2-en-1-one], the EC50 came to 5.7 nM.

As for `C=C(F)C(=O)N1CC(n2nc(-c3ccc(C(F)(F)F)cc3)c3ccc(OC)nc32)C1` [Compound 221, 2-fluoro-1-(3-(6-methoxy-3-(4-(trifluoromethyl)phenyl)-1H-pyrazolo[3,4-b]pyridin-1-yl)-azetidin-1-yl)prop-2-en-1-one], the EC50 amounted to 0.9 nM.

Take `C=C(F)C(=O)N1CC(n2nc(-c3ccc(C(F)(F)F)cc3)c3ccnc(OC)c32)C1` [Compound 222, 2-fluoro-1-(3-(7-methoxy-3-(4-(trifluoromethyl)phenyl)-1H-pyrazolo[3,4-c]pyridin-1-yl)-azetidin-1-yl)prop-2-en-1-one]: the EC50 turned out to be 0.9 nM.

`C=C(F)C(=O)N1CC(n2nc(-c3ccc(C(F)(F)F)cc3)c3ncc(OC)nc32)C1` [Compound 223, 2-fluoro-1-(3-(6-methoxy-3-(4-(trifluoromethyl)phenyl)-1H-pyrazolo[3,4-b]pyrazin-1-yl)-azetidin-1-yl)prop-2-en-1-one]: the EC50 stood at 0.6 nM.

On to `C=C(F)C(=O)N1CC(n2nc(-c3ccc(C(F)(F)F)cc3)c3nc(C)n(C)c(=O)c32)C1` [Compound 225, 1-(1-(2-fluoroacryloyl)azetidin-3-yl)-5,6-dimethyl-3-(4-(trifluoro-methyl)phenyl)-1,6-dihydro-7H-pyrazolo[4,3-d]pyrimidin-7-one], for which the EC50 came out at 3.6 nM.

Turning to `C=C(F)C(=O)N1CC(n2c(=O)n(-c3ccc(C(F)(F)F)cc3)c3cccnc32)C1` [Compound 230, 3-(1-(2 fluoroacryloyl)azetidin-3 yl)-1-(4-(trifluoromethyl)phenyl)-1,3-dihydro-2H-imidazo[4,5-b]pyridin-2-one], the EC50 turned out to be 6.4 nM.

Consider `C=CC(=O)N1CC(n2c(=N)n(-c3ccc(C(F)(F)F)cc3)c3ccccc32)C1` [Compound 231, 1-(3-(2-imino-3-(4-(trifluoromethyl)phenyl)-2,3-dihydro-1H-benzo[d]imidazol-1 yl)azetidin-1 yl)prop-2-en-1-one], for which the EC50 was determined as 360 nM.
